Results published in the kinase profiling compilation of Christmann-Franck et al. (2016).

Legend:
Assay in all cases: KINOMEscan competition binding
Details in all cases: compound 2.0 µM
NTRK1 (human) = NTRK1 (human) (UniProt P04629)
[1] = test system: EGFR (human), P00533 [G719C]
[2] = test system: FLT3 (human), P36888 [K663Q]
RPS6KA2 KD1 (human) = RPS6KA2 KD1 (human) (UniProt Q15349)
PHKG1 (human) = PHKG1 (human) (UniProt Q16816)
STK32A (human) = STK32A (human) (UniProt Q8WU08)
STK3 (human) = STK3 (human) (UniProt Q13188)
EPHA3 (human) = EPHA3 (human) (UniProt P29320)
[3] = test system: ABL1 (human), P00519 [E255K]
ABL1 (human), P00519 [E255K], sequence (P00519 whole entry E255K, looked up): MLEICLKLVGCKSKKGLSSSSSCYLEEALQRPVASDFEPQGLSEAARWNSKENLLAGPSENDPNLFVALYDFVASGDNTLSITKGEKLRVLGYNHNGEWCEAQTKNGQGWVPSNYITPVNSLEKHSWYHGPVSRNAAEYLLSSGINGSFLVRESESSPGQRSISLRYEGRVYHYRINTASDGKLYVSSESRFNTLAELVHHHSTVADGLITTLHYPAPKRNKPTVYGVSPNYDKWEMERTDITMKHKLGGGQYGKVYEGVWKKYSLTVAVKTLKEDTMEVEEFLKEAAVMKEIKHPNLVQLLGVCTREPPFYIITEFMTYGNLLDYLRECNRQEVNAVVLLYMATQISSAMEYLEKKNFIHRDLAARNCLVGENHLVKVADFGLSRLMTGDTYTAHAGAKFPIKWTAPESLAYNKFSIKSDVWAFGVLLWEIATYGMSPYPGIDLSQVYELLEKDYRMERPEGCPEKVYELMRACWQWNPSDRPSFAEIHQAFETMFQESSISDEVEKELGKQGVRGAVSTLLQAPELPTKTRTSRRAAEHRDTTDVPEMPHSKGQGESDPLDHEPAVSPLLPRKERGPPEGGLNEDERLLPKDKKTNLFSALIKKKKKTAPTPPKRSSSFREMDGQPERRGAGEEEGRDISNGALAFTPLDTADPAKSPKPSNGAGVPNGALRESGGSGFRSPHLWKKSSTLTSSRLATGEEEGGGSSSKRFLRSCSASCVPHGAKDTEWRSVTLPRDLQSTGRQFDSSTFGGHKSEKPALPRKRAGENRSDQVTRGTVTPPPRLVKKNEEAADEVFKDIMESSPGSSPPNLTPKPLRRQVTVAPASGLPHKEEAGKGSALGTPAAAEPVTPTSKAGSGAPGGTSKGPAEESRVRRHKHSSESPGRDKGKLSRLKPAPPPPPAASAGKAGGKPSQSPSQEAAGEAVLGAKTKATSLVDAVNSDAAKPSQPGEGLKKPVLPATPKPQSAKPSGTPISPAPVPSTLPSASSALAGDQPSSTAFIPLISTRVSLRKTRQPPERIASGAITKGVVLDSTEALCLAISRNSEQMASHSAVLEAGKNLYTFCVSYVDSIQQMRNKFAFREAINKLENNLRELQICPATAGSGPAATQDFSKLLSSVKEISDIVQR

[4] = test system: PIK3CA (human), P42336 [M1043I]
PKN2 (human) = PKN2 (human) (UniProt Q16513)
[5] = test system: MET (human), P08581 [M1250T]
RPS6KA5 KD1 (human) = RPS6KA5 KD1 (human) (UniProt O75582)
TTK (human) = TTK (human) (UniProt P33981)
TTK (human), sequence (P33981 whole entry, looked up): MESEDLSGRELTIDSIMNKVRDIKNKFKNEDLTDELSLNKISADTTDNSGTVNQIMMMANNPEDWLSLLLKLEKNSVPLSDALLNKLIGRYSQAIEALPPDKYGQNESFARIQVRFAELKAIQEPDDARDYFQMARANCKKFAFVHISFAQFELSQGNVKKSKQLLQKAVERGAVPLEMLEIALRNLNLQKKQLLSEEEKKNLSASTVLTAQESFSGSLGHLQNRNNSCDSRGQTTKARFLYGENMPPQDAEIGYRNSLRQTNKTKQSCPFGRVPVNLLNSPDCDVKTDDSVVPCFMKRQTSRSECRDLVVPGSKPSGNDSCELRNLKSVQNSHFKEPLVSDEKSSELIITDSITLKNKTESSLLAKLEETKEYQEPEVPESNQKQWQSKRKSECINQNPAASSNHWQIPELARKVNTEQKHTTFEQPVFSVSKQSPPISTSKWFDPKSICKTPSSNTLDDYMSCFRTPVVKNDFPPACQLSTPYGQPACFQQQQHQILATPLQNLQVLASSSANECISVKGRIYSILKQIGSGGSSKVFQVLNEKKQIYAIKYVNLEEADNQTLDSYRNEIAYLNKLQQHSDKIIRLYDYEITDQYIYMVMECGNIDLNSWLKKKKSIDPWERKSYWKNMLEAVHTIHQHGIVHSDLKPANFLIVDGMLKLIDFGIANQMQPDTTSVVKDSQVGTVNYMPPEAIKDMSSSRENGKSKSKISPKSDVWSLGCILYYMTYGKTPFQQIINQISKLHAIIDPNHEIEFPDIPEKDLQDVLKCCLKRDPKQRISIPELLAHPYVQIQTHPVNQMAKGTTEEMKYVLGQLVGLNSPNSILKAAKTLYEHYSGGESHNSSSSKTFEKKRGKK

MAP3K13 (human) = MAP3K13 (human) (UniProt O43283)
MAP3K13 (human), sequence (O43283 whole entry, looked up): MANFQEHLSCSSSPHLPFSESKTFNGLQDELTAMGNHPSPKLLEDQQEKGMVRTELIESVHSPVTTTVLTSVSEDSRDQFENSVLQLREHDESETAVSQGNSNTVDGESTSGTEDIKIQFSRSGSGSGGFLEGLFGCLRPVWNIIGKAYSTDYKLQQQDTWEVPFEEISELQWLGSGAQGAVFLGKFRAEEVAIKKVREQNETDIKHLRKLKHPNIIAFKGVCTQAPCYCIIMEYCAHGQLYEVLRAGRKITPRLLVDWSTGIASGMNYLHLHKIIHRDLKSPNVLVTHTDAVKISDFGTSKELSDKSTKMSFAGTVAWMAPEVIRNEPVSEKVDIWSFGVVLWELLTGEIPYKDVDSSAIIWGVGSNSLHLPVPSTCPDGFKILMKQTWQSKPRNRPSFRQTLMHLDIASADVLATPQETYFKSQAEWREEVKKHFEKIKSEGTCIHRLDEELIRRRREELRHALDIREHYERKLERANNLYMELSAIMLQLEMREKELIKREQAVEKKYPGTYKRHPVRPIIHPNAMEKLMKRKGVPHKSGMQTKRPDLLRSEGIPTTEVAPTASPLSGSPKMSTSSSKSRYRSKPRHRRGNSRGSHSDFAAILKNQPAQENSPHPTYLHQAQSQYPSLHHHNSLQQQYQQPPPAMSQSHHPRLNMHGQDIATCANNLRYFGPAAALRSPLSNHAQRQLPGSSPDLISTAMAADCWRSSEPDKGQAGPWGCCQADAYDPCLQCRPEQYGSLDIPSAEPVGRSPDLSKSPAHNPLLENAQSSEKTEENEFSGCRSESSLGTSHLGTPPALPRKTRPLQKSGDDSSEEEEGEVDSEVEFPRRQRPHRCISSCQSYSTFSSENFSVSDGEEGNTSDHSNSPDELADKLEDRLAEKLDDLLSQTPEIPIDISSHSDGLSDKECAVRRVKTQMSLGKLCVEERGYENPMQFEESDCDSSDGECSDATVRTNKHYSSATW

FES (human) = FES (human) (UniProt P07332)
NTRK2 (human) = NTRK2 (human) (UniProt Q16620)
[6] = test system: FLT3 (human), P36888 [ITD]
ERBB4 (human) = ERBB4 (human) (UniProt Q15303)
MAP4K5 (human) = MAP4K5 (human) (UniProt Q9Y4K4)
CDK7 (human) = CDK7 (human) (UniProt P50613)
EIF2AK1 (human) = EIF2AK1 (human) (UniProt Q9BQI3)
BMP2K (human) = BMP2K (human) (UniProt Q9NSY1)
CDK13 (human) = CDK13 (human) (UniProt Q14004)
[7] = target: TYK2 JH2 pseudokinase (human) (UniProt P29597)
RPS6KA4 KD1 (human) = RPS6KA4 KD1 (human) (UniProt O75676)
PIP5K1A (human) = PIP5K1A (human) (UniProt Q99755)
TGFBR1 (human) = TGFBR1 (human) (UniProt P36897)
PIK3C2G (human) = PIK3C2G (human) (UniProt O75747)
PRKD2 (human) = PRKD2 (human) (UniProt Q9BZL6)
PRKD2 (human), sequence (Q9BZL6 whole entry, looked up): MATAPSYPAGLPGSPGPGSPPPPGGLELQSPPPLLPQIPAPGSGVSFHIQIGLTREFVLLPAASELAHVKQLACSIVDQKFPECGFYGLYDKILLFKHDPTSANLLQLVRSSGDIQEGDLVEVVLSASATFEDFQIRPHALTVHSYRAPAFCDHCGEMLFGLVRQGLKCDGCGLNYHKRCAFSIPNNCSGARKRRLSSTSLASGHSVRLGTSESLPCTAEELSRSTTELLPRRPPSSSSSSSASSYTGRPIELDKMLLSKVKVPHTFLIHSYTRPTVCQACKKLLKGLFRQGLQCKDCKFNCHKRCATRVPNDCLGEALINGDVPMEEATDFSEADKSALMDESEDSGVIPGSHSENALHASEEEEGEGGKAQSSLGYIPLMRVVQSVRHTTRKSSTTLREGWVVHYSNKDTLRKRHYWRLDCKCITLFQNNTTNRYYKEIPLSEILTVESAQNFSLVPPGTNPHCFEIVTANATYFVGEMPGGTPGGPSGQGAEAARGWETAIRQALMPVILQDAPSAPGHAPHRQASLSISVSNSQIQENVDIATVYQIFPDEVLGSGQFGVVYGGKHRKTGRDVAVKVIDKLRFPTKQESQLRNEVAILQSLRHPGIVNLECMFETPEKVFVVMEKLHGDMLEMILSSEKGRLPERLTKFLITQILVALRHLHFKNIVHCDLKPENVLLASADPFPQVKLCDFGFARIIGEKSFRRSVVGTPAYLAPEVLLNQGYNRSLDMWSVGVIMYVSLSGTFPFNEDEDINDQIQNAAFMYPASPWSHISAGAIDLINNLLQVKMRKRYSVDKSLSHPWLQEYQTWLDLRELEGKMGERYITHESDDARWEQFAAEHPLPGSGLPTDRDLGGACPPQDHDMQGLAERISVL

[8] = test system: PIK3CA (human), P42336 [I800L]
TGFBR2 (human) = TGFBR2 (human) (UniProt P37173)
[9] = test system: EGFR (human), P00533 [T790M]
WEE1 (human) = WEE1 (human) (UniProt P30291)
WEE1 (human), sequence (P30291 whole entry, looked up): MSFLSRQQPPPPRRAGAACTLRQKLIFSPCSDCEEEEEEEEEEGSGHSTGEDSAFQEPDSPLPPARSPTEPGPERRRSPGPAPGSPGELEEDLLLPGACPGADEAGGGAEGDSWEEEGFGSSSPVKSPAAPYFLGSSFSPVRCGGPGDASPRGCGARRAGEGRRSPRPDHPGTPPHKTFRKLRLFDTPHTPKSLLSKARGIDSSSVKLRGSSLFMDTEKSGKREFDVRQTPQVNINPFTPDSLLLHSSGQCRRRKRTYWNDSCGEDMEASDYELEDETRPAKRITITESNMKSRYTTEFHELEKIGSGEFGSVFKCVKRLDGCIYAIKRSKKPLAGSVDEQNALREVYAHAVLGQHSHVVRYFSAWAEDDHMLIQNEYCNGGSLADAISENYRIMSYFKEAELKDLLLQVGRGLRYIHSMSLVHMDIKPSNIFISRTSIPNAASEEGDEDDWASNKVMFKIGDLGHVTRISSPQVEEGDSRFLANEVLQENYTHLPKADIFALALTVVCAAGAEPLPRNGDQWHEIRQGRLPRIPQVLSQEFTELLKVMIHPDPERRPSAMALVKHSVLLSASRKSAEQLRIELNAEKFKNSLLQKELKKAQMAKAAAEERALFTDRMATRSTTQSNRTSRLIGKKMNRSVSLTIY

NEK9 (human) = NEK9 (human) (UniProt Q8TD19)
[10] = test system: KIT (human), P10721 [V559D]
MAPK1 (human) = MAPK1 (human) (UniProt P28482)
MAP3K10 (human) = MAP3K10 (human) (UniProt Q02779)
GAK (human) = GAK (human) (UniProt O14976)
CLK1 (human) = CLK1 (human) (UniProt P49759)
RPS6KA6 KD1 (human) = RPS6KA6 KD1 (human) (UniProt Q9UK32)
CDC2L2 (human) = CDC2L2 (human) (UniProt Q9UQ88)

PHKG1 (human), sequence (Q16816 whole entry, looked up): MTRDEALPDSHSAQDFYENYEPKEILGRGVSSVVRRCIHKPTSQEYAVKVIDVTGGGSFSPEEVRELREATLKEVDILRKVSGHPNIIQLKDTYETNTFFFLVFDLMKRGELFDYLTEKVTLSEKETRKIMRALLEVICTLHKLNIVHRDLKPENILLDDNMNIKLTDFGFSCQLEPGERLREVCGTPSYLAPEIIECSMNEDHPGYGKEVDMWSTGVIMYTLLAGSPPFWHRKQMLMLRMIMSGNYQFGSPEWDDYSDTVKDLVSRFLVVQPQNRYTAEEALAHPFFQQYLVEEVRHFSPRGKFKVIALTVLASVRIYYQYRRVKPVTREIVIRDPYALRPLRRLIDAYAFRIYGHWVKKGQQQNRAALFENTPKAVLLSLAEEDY

SMILES: N#Cc1ccc2ncnc(NCCc3ccc4ccccc4c3)c2c1
- kinase still bound, per cent of control (NTRK1 (human)): 100%
- kinase still bound, per cent of control [1]: 96%
- kinase still bound, per cent of control [2]: 98%
- kinase still bound, per cent of control (RPS6KA2 KD1 (human)): 100%
- kinase still bound, per cent of control (PHKG1 (human)): 100%
- kinase still bound, per cent of control (STK32A (human)): 100%
- kinase still bound, per cent of control (STK3 (human)): 74%
- kinase still bound, per cent of control (EPHA3 (human)): 91%
- kinase still bound, per cent of control [3]: 100%
- kinase still bound, per cent of control [4]: 93%
- kinase still bound, per cent of control (PKN2 (human)): 100%
- kinase still bound, per cent of control [5]: 73%
- kinase still bound, per cent of control (RPS6KA5 KD1 (human)): 100%
- kinase still bound, per cent of control (TTK (human)): 75%
- kinase still bound, per cent of control (MAP3K13 (human)): 100%
- kinase still bound, per cent of control (FES (human)): 100%
- kinase still bound, per cent of control (NTRK2 (human)): 98%
- kinase still bound, per cent of control [6]: 87%
- kinase still bound, per cent of control (ERBB4 (human)): 98%
- kinase still bound, per cent of control (MAP4K5 (human)): 95%
- kinase still bound, per cent of control (CDK7 (human)): 80%
- kinase still bound, per cent of control (EIF2AK1 (human)): 100%
- kinase still bound, per cent of control (BMP2K (human)): 68%
- kinase still bound, per cent of control (CDK13 (human)): 100%
- kinase still bound, per cent of control [7]: 92%
- kinase still bound, per cent of control (RPS6KA4 KD1 (human)): 83%
- kinase still bound, per cent of control (PIP5K1A (human)): 100%
- kinase still bound, per cent of control (TGFBR1 (human)): 100%
- kinase still bound, per cent of control (PIK3C2G (human)): 100%
- kinase still bound, per cent of control (PRKD2 (human)): 73%
- kinase still bound, per cent of control [8]: 85%
- kinase still bound, per cent of control (TGFBR2 (human)): 92%
- kinase still bound, per cent of control [9]: 100%
- kinase still bound, per cent of control (WEE1 (human)): 88%
- kinase still bound, per cent of control (NEK9 (human)): 100%
- kinase still bound, per cent of control [10]: 95%
- kinase still bound, per cent of control (MAPK1 (human)): 100%
- kinase still bound, per cent of control (MAP3K10 (human)): 100%
- kinase still bound, per cent of control (GAK (human)): 100%
- kinase still bound, per cent of control (CLK1 (human)): 56%
- kinase still bound, per cent of control (RPS6KA6 KD1 (human)): 100%
- kinase still bound, per cent of control (CDC2L2 (human)): 100%
